Results taken from US20070135383A1, “Phospholipase inhibitors, including multi-valent phospholipase inhibitors, and use thereof, including as lumen-localized phospholipase inhibitors” (priority 2005, published 2007).

Tests used:
[1] = system: wild-type C57BL/6 mice on high fat/high sucrose diet; experiment: In-vivo evaluation on high fat/high sucrose diabetogenic diet, 10 weeks (Example 10); design: species or system mouse; settings: for fasting glucose levels: low dose 25 mg/kg/day
Protocol: ILY-4001 (FIG. 7) was evaluated as a PLA2 IB inhibitor in a set of experiments using wild-type mice and genetically deficient PLA2 (−/−) mice (also referred to herein as PLA2 knock-out (KO) mice). In these experiments, wild-type and PLA2 (−/−) mice were maintained on a high fat/high sucrose diet, details of which are described below.
Briefly, four groups were set up, each having six mice. Three of the groups included six wild-type PLA2 (+/+) mice in each group (eighteen mice total), and one of the groups included six genetically deficient PLA2 (−/−) mice. One of the wild-type groups was used as a wild-type control group, and was not treated with ILY-4001. The other two wild-type groups were treated with ILY-4001—one group at a lower dose (indicated as “L” in Table 1) of 25 mg/kg/day, and the other at a higher dose (indicated as “H” in Table 1) of 90 mg/kg/day. The group comprising the PLA2 (−/−) mice was used as a positive control group.
The experimental protocol used in this study was as follows. The four groups of mice, including wild type and isogenic PLA2 (−/−) C57BL/J mice were acclimated for three days on a low fat/low carbohydrate diet. After the three day acclimation phase, the animals were fasted overnight and serum samples taken to establish baseline plasma cholesterol, triglyceride, and glucose levels, along with baseline body weight. The mice in each of the treatment groups were then fed a high fat/high sucrose diabetogenic diet (Research Diets D12331). 1000 g of the high fat/high sucrose D12331 diet was composed of casein (228 g), DL-methionine (2 g), maltodextrin 10 (170 g), sucrose (175 g), soybean oil (25 g), hydrogenated coconut oil (333.5 g), mineral mix S10001 (40 g), sodium bicarbonate (10.5 g), potassium citrate (4 g), vitamin mix V10001 (10 g), and choline bitartrate (2 g). This diet was supplemented with ILY-4001 treatments such that the average daily dose of the compound ingested by a 25 g mouse was: 0 mg/kg/day (wild-type control group and PLA2 (−/−) control group); 25 mg/kg/day (low-dose wild-type treatment group), or 90 mg/kg/day (high-dose wild-type treatment group). The animals were maintained on the high fat/high sucrose diet, with the designated ILY-4001 supplementation, for a period of ten weeks.
Body weight measurements were taken for all animals in all treatment and control groups at the beginning of the treatment period and at 4 weeks and 10 weeks after initiation of the study. (See Example 10A). Blood draws were also taken at the beginning of the treatment period (baseline) and at 4 weeks and 10 weeks after initiation of the study, in order to determine fasting glucose (See Example 10B). Cholesterol and triglyceride levels were determined from blood draws taken at the beginning of the treatment (baseline) and at ten weeks. (See […]).

mouse PLA2 IB enzyme = mouse PLA2 IB enzyme (Mus musculus, UniProt Q9Z0Y2); settings: versus the mouse PLA2 IB enzyme; cited from earlier work
[2] = low and high doses (25 and 90 mg/kg/day), 10 weeks

Sequence of mouse PLA2 IB enzyme (Q9Z0Y2 23-146): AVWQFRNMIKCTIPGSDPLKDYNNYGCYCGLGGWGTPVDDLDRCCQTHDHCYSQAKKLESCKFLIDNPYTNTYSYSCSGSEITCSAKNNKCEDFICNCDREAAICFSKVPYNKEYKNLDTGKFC

Cc1c(C(=O)C(N)=O)c2c(OCC(=O)O)cccc2n1Cc1ccccc1-c1ccccc1 [ILY-4001, 2-(3-(2-amino-2-oxoacetyl)-1-(biphenyl-2-ylmethyl)-2-methyl-1H-indol-4-yloxy)acetic acid]
body weight gain ([1]; 25 mg/kg/d and 90 mg/kg/d in diet, week 4 and week 10, vs wild-type control): significantly reduced body weight gains
plasma levels of cholesterol [1, 2]: substantially reduced
plasma levels of triglycerides [1, 2]: substantially reduced
fasting glucose levels ([1]; week four): moderately beneficial effect
fasting glucose levels ([1]; week ten): beneficial effect was not observed
IC50 (mouse PLA2 IB enzyme): 150 nM
